Laboratory results from patent USRE48461E1, “Modulation of androgen receptor expression” (Ionis Pharmaceuticals, Inc., priority 2012, dated 2021).

Columns and labels:
Assay type in all cases: cell-based, human
AR mRNA = AR mRNA levels in LMR20 cells (with/without DHT or R1881); settings: with or without DHT/R1881
Method: (§1) LMR20 cells were plated at 1,500 cells per well in phenol red-free medium with CSS.

TMPRSS2 mRNA [1] = assay: TMPRSS2 mRNA levels in LMR20 cells; settings: with or without DHT/R1881
Method: as §1

C4-2B cells = assay: C4-2B cell proliferation, ASO in combination with MDV3100 (Example 21); settings: for Proliferation (% untreated control) in C4-2B without MDV-3100: 5 days
Method: C4-2B cells were plated at 1,000 cells per well. […] ISIS 549148 was included as a negative control. […] After a treatment period of 5 days, the proliferative capacity of the cancer cells was measured with CellTiter 96® AQueous One Solution Cell Proliferation kit (Promega), following the manufacturer's instructions. […]

TMPRSS2 mRNA [2] = assay: Time-course TMPRSS2 expression in C4-2B cells
Outline: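 C4-2B cells at 1,000/well in complete medium, treated with antisense oligonucleotide; ISIS 549148 as negative control. PSA and TMPRSS2 mRNA measured after 8, 24 and 48 h, given as percent inhibition relative to non-treated cells.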

PSA mRNA = assay: PSA expression in C4-2 cells; settings: 48 hrs; for Percent inhibition of PSA expression: C4-2 cells, CSS + DHT medium
Method: Cells were plated at 1,000 cells per well. […] After an incubation period of 48 hrs, RNA levels of AR, PSA and TMPRSS2 were measured.
Cells were plated at 2,000 cells per well and cultured in CSS media with 1 nM DHT. […] After an incubation period of 48 hrs, RNA levels of AR, PSA and TMPRSS2 were measured.

VCaP cells = assay: VCaP cell proliferation; settings: 5 days; for Proliferation (% untreated control): VCaP cells
Outline: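 VCaP cells treated 5 days in complete medium or charcoal-stripped serum medium with 1 nM DHT; proliferation read by CellTiter 96 AQueous One or CellTiter-Glo.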

22RV1 cells [3] = assay: 22RV1 cell proliferation (Example 32); settings: 5 days; for Proliferation (% untreated control): 22RV1 cells, complete medium
Outline: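 Cells were treated for 5 days in complete medium. Proliferation was then read with a tetrazolium (AQueous One) or ATP-luminescence (CellTiter-Glo) assay.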

22RV1 cells [4] = assay: 22RV1 apoptosis (Caspase-glo 3/7); settings: 72 hours; for Apoptosis (% untreated control): 22RV1 cells
Method: After a treatment period of 72 hours in complete medium or CSS+DHT medium, apoptosis of the cancer cells was measured with Caspase-glo 3/7 assay kit (Promega). Results are presented in Tables 131 and 132 as percent apoptosis of the cells, relative to non-treated cells.

TTGATTTAATGGTTGC [ISIS 560131] (MOE and (S)-cEt gapmer chemistry, further chemistry not given here) [targets intron 1]
AR mRNA levels in LMR20 cells (AR mRNA): reduced AR mRNA levels in LMR20 cells, treated with or without either AR agonist, in a dose dependent manner relative to the baseline
TMPRSS2 mRNA levels in LMR20 cells (TMPRSS2 mRNA [1]): reduced PSA levels and TMPRSS2 more extensively than the LNA gapmer ISIS 554221 or MDV3100
Proliferation (% untreated control) in C4-2B with 0.08 μM MDV-3100 (C4-2B cells; ASO dose 0.04 μM + 0.08 μM MDV-3100): 73 % untreated control
Proliferation (% untreated control) in C4-2B with 0.4 μM MDV-3100 (C4-2B cells; ASO dose 0.04 μM + 0.4 μM MDV-3100): 69 % untreated control
Proliferation (% untreated control) in C4-2B with 2.0 μM MDV-3100 (C4-2B cells; ASO dose 0.04 μM + 2.0 μM MDV-3100): 42 % untreated control
Proliferation (% untreated control) in C4-2B with […] MDV-3100 (C4-2B cells; ASO dose 0.04 μM + […] MDV-3100): 71 % untreated control
Proliferation (% untreated control) in C4-2B without MDV-3100 (C4-2B cells; ASO dose 0.04 μM): 59 % untreated control
Proliferation (% untreated control) in C4-2B with 0.08 μM MDV-3100 (C4-2B cells; ASO dose 0.08 μM + 0.08 μM MDV-3100): 66 % untreated control
Proliferation (% untreated control) in C4-2B with 0.4 μM MDV-3100 (C4-2B cells; ASO dose 0.08 μM + 0.4 μM MDV-3100): 69 % untreated control
Proliferation (% untreated control) in C4-2B with 2.0 μM MDV-3100 (C4-2B cells; ASO dose 0.08 μM + 2.0 μM MDV-3100): 37 % untreated control
Proliferation (% untreated control) in C4-2B with […] MDV-3100 (C4-2B cells; ASO dose 0.08 μM + […] MDV-3100): 104 % untreated control
Proliferation (% untreated control) in C4-2B without MDV-3100 (C4-2B cells; ASO dose 0.08 μM): 84 % untreated control
Proliferation (% untreated control) in C4-2B with 0.08 μM MDV-3100 (C4-2B cells; ASO dose 0.2 μM + 0.08 μM MDV-3100): 56 % untreated control
Proliferation (% untreated control) in C4-2B with 0.4 μM MDV-3100 (C4-2B cells; ASO dose 0.2 μM + 0.4 μM MDV-3100): 48 % untreated control
Proliferation (% untreated control) in C4-2B with 2.0 μM MDV-3100 (C4-2B cells; ASO dose 0.2 μM + 2.0 μM MDV-3100): 49 % untreated control
Proliferation (% untreated control) in C4-2B with […] MDV-3100 (C4-2B cells; ASO dose 0.2 μM + […] MDV-3100): 53 % untreated control
Proliferation (% untreated control) in C4-2B without MDV-3100 (C4-2B cells; ASO dose 0.2 μM): 47 % untreated control
Proliferation (% untreated control) in C4-2B with 0.08 μM MDV-3100 (C4-2B cells; ASO dose 1.0 μM + 0.08 μM MDV-3100): 42 % untreated control
Proliferation (% untreated control) in C4-2B with 0.4 μM MDV-3100 (C4-2B cells; ASO dose 1.0 μM + 0.4 μM MDV-3100): 48 % untreated control
Proliferation (% untreated control) in C4-2B with 2.0 μM MDV-3100 (C4-2B cells; ASO dose 1.0 μM + 2.0 μM MDV-3100): 43 % untreated control
Proliferation (% untreated control) in C4-2B with […] MDV-3100 (C4-2B cells; ASO dose 1.0 μM + […] MDV-3100): 39 % untreated control
Proliferation (% untreated control) in C4-2B without MDV-3100 (C4-2B cells; ASO dose 1.0 μM): 41 % untreated control
synergy with MDV3100 (C4-2B cells; C4-2B cells): synergistic with MDV3100
cell proliferation inhibited, combination (C4-2B cells; C4-2B cells, 0.08 μM ASO in combination with 0.4 μM MDV3100): 31%
inhibited cell proliferation, ASO alone (C4-2B cells; C4-2B cells, ASO alone at 0.08 μM): 16%
Percent inhibition of TMPRSS2 expression compared to the control group in 8 hours (TMPRSS2 mRNA [2]; 0.04 μM): 0%
Percent inhibition of TMPRSS2 expression compared to the control group in 24 hours (TMPRSS2 mRNA [2]; 0.04 μM): 35%
Percent inhibition of TMPRSS2 expression compared to the control group in 48 hours (TMPRSS2 mRNA [2]; 0.04 μM): 46%
Percent inhibition of TMPRSS2 expression compared to the control group in 8 hours (TMPRSS2 mRNA [2]; 0.2 μM): 0%
Percent inhibition of TMPRSS2 expression compared to the control group in 24 hours (TMPRSS2 mRNA [2]; 0.2 μM): 57%
Percent inhibition of TMPRSS2 expression compared to the control group in 48 hours (TMPRSS2 mRNA [2]; 0.2 μM): 71%
Percent inhibition of TMPRSS2 expression compared to the control group in 8 hours (TMPRSS2 mRNA [2]; 1 μM): 6%
Percent inhibition of TMPRSS2 expression compared to the control group in 24 hours (TMPRSS2 mRNA [2]; 1 μM): 66%
Percent inhibition of TMPRSS2 expression compared to the control group in 48 hours (TMPRSS2 mRNA [2]; 1 μM): 77%
Percent inhibition of TMPRSS2 expression compared to the control group in 8 hours (TMPRSS2 mRNA [2]; 5.0 μM): 0%
Percent inhibition of TMPRSS2 expression compared to the control group in 24 hours (TMPRSS2 mRNA [2]; 5.0 μM): 67%
Percent inhibition of TMPRSS2 expression compared to the control group in 48 hours (TMPRSS2 mRNA [2]; 5.0 μM): 76%
TMPRSS2 expression (TMPRSS2 mRNA [2]; time course): reduced PSA and TMPRSS2 expression in the cells relative to the control set at the 24 hr and 48 hr time points
Percent inhibition of PSA expression (PSA mRNA; 0.04 μM): 10%
Percent inhibition of PSA expression (PSA mRNA; 0.2 μM): 24%
Percent inhibition of PSA expression (PSA mRNA; 1 μM): 49%
Percent inhibition of PSA expression (PSA mRNA; 5.0 μM): 74%
Percent inhibition of PSA expression in C4-2 cells cultured in complete medium (PSA mRNA; 0.04 μM): 48%
Percent inhibition of PSA expression in C4-2 cells cultured in complete medium (PSA mRNA; 0.2 μM): 78%
Percent inhibition of PSA expression in C4-2 cells cultured in complete medium (PSA mRNA; 1 μM): 88%
Percent inhibition of PSA expression in C4-2 cells cultured in complete medium (PSA mRNA; 5.0 μM): 89%
Proliferation (% untreated control) (VCaP cells; CSS + DHT medium, 1.34 nM): 95 % untreated control
Proliferation (% untreated control) (VCaP cells; CSS + DHT medium, 4.0 nM): 65 % untreated control
Proliferation (% untreated control) (VCaP cells; CSS + DHT medium, 13.4 nM): 42 % untreated control
Proliferation (% untreated control) (VCaP cells; CSS + DHT medium, 40 nM): 37 % untreated control
Proliferation (% untreated control) (VCaP cells; complete medium, 1.34 nM): 98 % untreated control
Proliferation (% untreated control) (VCaP cells; complete medium, 4.0 nM): 66 % untreated control
Proliferation (% untreated control) (VCaP cells; complete medium, 13.4 nM): 53 % untreated control
Proliferation (% untreated control) (VCaP cells; complete medium, 40 nM): 48 % untreated control
proliferation of VCaP cells (VCaP cells; complete medium or CSS+1 nM DHT): reduced proliferation of the cells in a dose dependent compared to the control
Proliferation (% untreated control) (22RV1 cells [3]; 1.34 nM): 94 % untreated control
Proliferation (% untreated control) (22RV1 cells [3]; 4.0 nM): 72 % untreated control
Proliferation (% untreated control) (22RV1 cells [3]; 13.4 nM): 50 % untreated control
Proliferation (% untreated control) (22RV1 cells [3]; 40 nM): 17 % untreated control
proliferation of 22RV1 cells (22RV1 cells [3]): reduced proliferation of the cells in a dose dependent compared to the control
Apoptosis (% untreated control) (22RV1 cells [4]; CSS + DHT medium, 1.34 nM): 121 % untreated control
Apoptosis (% untreated control) (22RV1 cells [4]; CSS + DHT medium, 4.0 nM): 113 % untreated control
Apoptosis (% untreated control) (22RV1 cells [4]; CSS + DHT medium, 13.4 nM): 172 % untreated control
Apoptosis (% untreated control) (22RV1 cells [4]; CSS + DHT medium, 40 nM): 518 % untreated control
Apoptosis (% untreated control) (22RV1 cells [4]; complete medium, 1.34 nM): 99 % untreated control
Apoptosis (% untreated control) (22RV1 cells [4]; complete medium, 4.0 nM): 127 % untreated control
Apoptosis (% untreated control) (22RV1 cells [4]; complete medium, 13.4 nM): 131 % untreated control
Apoptosis (% untreated control) (22RV1 cells [4]; complete medium, 40 nM): 566 % untreated control
apoptosis of 22RV1 cells (22RV1 cells [4]; complete or CSS+DHT medium): increased apoptosis of the cells in a dose dependent compared to the control
